Patent publication US20050245399A1, “Pyrazole derivatives as herbicidal compositions containing them” (ISHIHARA SANGYO KAISHA, LTD., priority 2004, published 2005)

How the values were obtained:
Assay type in all cases: in vivo
[1] = system: wheat (Triticum aestivum L.), TRZAX; assay: Test Example 2 post-emergence (foliage treatment) herbicidal activity, TRZAX; conditions: 63 g a.i./ha
Procedure, shortened: (§1)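 Each species was evaluated for growth suppression by eye, 0% matching untreated and 100% meaning death, some 20 to 23 days after a single post-emergence foliar treatment applied in 500 L/ha of water carrying 0.1% (v/v) agricultural spreader.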

[2] = system: velvetleaf (Abutilon theophrasti): ABUTH; assay: Test Example 1 pre-emergence herbicidal activity, ABUTH; conditions: Rate 63 g a.i./ha, visually observed 20th to 23rd day after application
Procedure, shortened: (§2)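 pots, upland field soil; sow; +1 d spray compound (WP or EC, a.i. at set dose, 500 L/ha water), pre-emergence; visual % growth control d20–23 (0 untreated, 100 complete kill).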

[3] = system: barnyardgrass (Echinochloa crus-galli L.): ECHCG; assay: Test Example 1 pre-emergence herbicidal activity, ECHCG; conditions: Rate 63 g a.i./ha, visually observed 20th to 23rd day after application
Procedure, shortened: as §2

[4] = system: soybean (Glycine max Merr.), GLXMA; assay: Test Example 2 post-emergence (foliage treatment) herbicidal activity, GLXMA; conditions: 63 g a.i./ha
Procedure, shortened: as §1

[5] = system: corn (Zea mays L.): ZEAMX; assay: Test Example 1 pre-emergence herbicidal activity, ZEAMX; conditions: Rate 63 g a.i./ha, visually observed 20th to 23rd day after application
Procedure, shortened: as §2

[6] = system: crabgrass (Digitaria sanguinalis L.), DIGSA; assay: Test Example 2 post-emergence (foliage treatment) herbicidal activity, DIGSA; conditions: 63 g a.i./ha
Procedure, shortened: (§3)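 Herbicide was applied to foliage of seedlings raised in upland field soil: redroot pigweed at 0.1-1.5 leaves, barnyardgrass at 1.1-2.1, crabgrass at 1.0-2.0, rice at 1.0-2. A predetermined active ingredient amount was carried in 500 L/ha water with 0.1% (v/v) spreader; control (%) was assessed by eye after 20-23 days.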

[7] = system: prickly sida (Sida spinosa L.): SEDSP; assay: Test Example 1 pre-emergence herbicidal activity, SIDSP; conditions: Rate 63 g a.i./ha, visually observed 20th to 23rd day after application
Procedure, shortened: as §2

[8] = system: redroot pigweed (Amaranthus retroflexus L.), AMARE; assay: Test Example 2 post-emergence (foliage treatment) herbicidal activity, AMARE; conditions: 63 g a.i./ha
Text: Upland field soil was put into a 1/170,000 ha pot, and seeds of various plants were sown. Then, when the plants reached predetermined leaf stages {1. barnyardgrass (Echinochloa crus-galli L.), ECHCG: 1.1-2.1 leaf stage, 2. crabgrass (Digitaria sanguinalis L.), DIGSA: 1.0-2.0 leaf stage, 3. green foxtail (Setaria viridis L.), SETVI: 1.0-2.2 leaf stage, 4. redroot pigweed (Amaranthus retroflexus L.), AMARE: 0.1-1.5 leaf stage, 5. prickly sida (Sida spinosa L.), SIDSP: 0.1-0.6 leaf stage, 6. velvetleaf (Abutilon theophrasti), ABUTH: 0.1-0.6 leaf stage, 7. common cocklebur (Xanthium strumarium L.), XANST: 0.1 leaf stage, 8. rice (Oryza sativa L.), ORYSA; 1.0-2 leaf stage, 9. wheat (Triticum aestivum L.), TRZAX: 2.3-3.5 leaf stage, 10. corn (Zea mays L.), ZEAMXN 2.1-2.6 leaf stage, 11. soybean (Glycine max Merr.), GLXMA: primary leaf stage}, a wettable powder or emulsifiable concentrate having the compound of the present invention formulated in accordance with a usual formulation method, was weighed so that the active ingredient would be a predetermined amount, and diluted with water in an amount of 500 L/ha. To the diluted solution, 0.1% (v/v) of an agricultural spreader was added. The herbicide adjusted was applied by a small size sprayer for foliage treatment. On the 20th to 23rd day after the application of the herbicide, the growth of the respective plants was visually observed, and the herbicidal effects were evaluated by growth controlling degrees (%) ranging from 0 (equivalent to the untreated control) to 100 (complete kill), whereby the results shown in Table 5, were obtained. Compound Nos. in Table 5 correspond to Compound Nos. in Table 1 and 2 given hereinbefore.

[9] = system: rice (Oryza sativa L.): ORYSA; assay: Test Example 1 pre-emergence herbicidal activity, ORYSA; conditions: Rate 63 g a.i./ha, visually observed 20th to 23rd day after application
Procedure, shortened: as §2

[10] = system: rice (Oryza sativa L.), ORYSA; assay: Test Example 2 post-emergence (foliage treatment) herbicidal activity, ORYSA; conditions: 63 g a.i./ha
Procedure, shortened: as §3

[11] = system: crabgrass (Digitaria sanguinalis L.): DIGSA; assay: Test Example 1 pre-emergence herbicidal activity, DIGSA; conditions: Rate 63 g a.i./ha, visually observed 20th to 23rd day after application
Procedure, shortened: as §2

[12] = system: soybean (Glycine max Merr.): GLXMA; assay: Test Example 1 pre-emergence herbicidal activity, GLXMA; conditions: Rate 63 g a.i./ha, visually observed 20th to 23rd day after application
Procedure, shortened: as §2

[13] = system: wheat (Triticum aestivum L.): TRZAX; assay: Test Example 1 pre-emergence herbicidal activity, TRZAX; conditions: Rate 63 g a.i./ha, visually observed 20th to 23rd day after application
Procedure, shortened: as §2

[14] = system: redroot pigweed (Amaranthus retroflexus L.): AMARE; assay: Test Example 1 pre-emergence herbicidal activity, AMARE; conditions: Rate 63 g a.i./ha, visually observed 20th to 23rd day after application
Procedure, shortened: as §2

[15] = system: velvetleaf (Abutilon theophrasti), ABUTH; assay: Test Example 2 post-emergence (foliage treatment) herbicidal activity, ABUTH; conditions: 63 g a.i./ha
Procedure, shortened: as §1

[16] = system: corn (Zea mays L.), ZEAMX; assay: Test Example 2 post-emergence (foliage treatment) herbicidal activity, ZEAMX; conditions: 63 g a.i./ha
Procedure, shortened: as §1

[17] = system: green foxtail (Setaria viridis L.): SETVI; assay: Test Example 1 pre-emergence herbicidal activity, SETVI; conditions: Rate 63 g a.i./ha, visually observed 20th to 23rd day after application
Procedure, shortened: as §2

[18] = system: barnyardgrass (Echinochloa crus-galli L.), ECHCG; assay: Test Example 2 post-emergence (foliage treatment) herbicidal activity, ECHCG; conditions: 63 g a.i./ha
Procedure, shortened: as §3

[19] = system: green foxtail (Setaria viridis L.), SETVI; assay: Test Example 2 post-emergence (foliage treatment) herbicidal activity, SETVI; conditions: 63 g a.i./ha
Procedure, shortened: as §1

Row | SMILES | growth controlling degree, TRZAX [1] | Pre-emergence Herbicidal Activity ABUTH (growth controlling degree) [2] | Pre-emergence Herbicidal Activity ECHCG (growth controlling degree) [3] | growth controlling degree, GLXMA [4] | Pre-emergence Herbicidal Activity ZEAMX (growth controlling degree) [5] | growth controlling degree, DIGSP [6] | Pre-emergence Herbicidal Activity SIDSP (growth controlling degree) [7] | growth controlling degree, AMARE [8] | Pre-emergence Herbicidal Activity ORYSA (growth controlling degree) [9] | growth controlling degree, ORYSA [10] | Pre-emergence Herbicidal Activity DIGSP (growth controlling degree) [11] | Pre-emergence Herbicidal Activity GLXMA (growth controlling degree) [12] | Pre-emergence Herbicidal Activity TRZAX (growth controlling degree) [13] | Pre-emergence Herbicidal Activity AMARE (growth controlling degree) [14] | growth controlling degree, ABUTH [15] | growth controlling degree, ZEAMX [16] | Pre-emergence Herbicidal Activity SETVI (growth controlling degree) [17] | growth controlling degree, ECHCO [18] | growth controlling degree, SETVI [19]
1 | COc1c(Cl)cc(F)c(-c2nn(C)c(OC(F)F)c2Cl)c1NC(=O)c1ccc(F)cc1 [Compound 1-263] | 30% | 100% | 90% | 50% | 0% | 98% | 100% | 100% | 40% | 70% | 98% | 10% | 30% | 100% | 100% | 60% | 100% | 98% | 100%
2 | COc1c(Cl)cc(F)c(-c2nn(C)c(OC(F)F)c2Cl)c1NC(=O)COCc1ccccc1 [Compound 1-45] | 40% | 30% | 0% | 60% | 0% | 70% | 0% | 100% | 30% | 80% | 90% | 0% | 10% | 100% | 100% | 40% | 40% | 95% | 90%
3 | CCOC(=O)C(C)Nc1c(OC)c(Cl)cc(F)c1-c1nn(C)c(OC(F)F)c1Cl (centres unmarked) [Compound 1-76] | 40% | 40% | 60% | 70% | 0% | 70% | 60% | 100% | 10% | 80% | 100% | 0% | 0% | 100% | 100% | 90% | 60% | 100% | 80%
4 | COc1c(Cl)cc(F)c(-c2nn(C)c(OC(F)F)c2Cl)c1NC(=O)C1CC1 [Compound 1-264] | 40% | 80% | 100% | 70% | 0% | 100% | 100% | 100% | 50% | 80% | 100% | 0% | 20% | 100% | 100% | 50% | 60% | 80% | 100%
5 | COc1c(Cl)cc(F)c(-c2nn(C)c(OC(F)F)c2Cl)c1NC(=O)c1cccc(C(F)(F)F)c1 [Compound 1-262] | 30% | 20% | 0% | 50% | 0% | 40% | 30% | 100% | 10% | 30% | 30% | 0% | 0% | 100% | 100% | 40% | 30% | 60% | 80%
